Test [1] concerns isoniazide induced convulsions in mice. As to the kind of experiment: Isoniazid antagonism (antagonism of isoniazide induced convulsions in mice). The conditions noted are these: Mus musculus, sc, 30 min before 300 mg isoniazide s.c., protected = no convulsions within 60 min, log probit analysis. The format is in vivo, mice (male NMRI/BOM). On the procedure: The test is a test for antagonism of isoniazide induced convulsions in mice.
The test substance is given s.c. to mice (male NMRI/BOM, body weight 20-25 g) and 30 min later 300 mg isoniazide is given s.c. Five mice are used per dose and a control group only receiving isoniazide is included. This dose of isoniazide induces intermittent tonic seizures.
The animals are placed individually in Macrolon type II cages and the time when convulsions first occur is recorded. The experiment is stopped after 90 min. The animals that have not had convulsions within 60 min. are recorded as + (protected). The results, i.e. the number of protected mice pr number of tested mice are stated in fractions as follows: 0/5, 1/5 . . . , 5/5.

Test [2] relates to GABA uptake in synaptosomes. As to the kind of experiment: GABA uptake inhibition in synaptosomes (overall, i.e. neuronal and glial). In kind it is biochemical. The conditions noted are these: values marked * = Preliminary Data. As for the experimental part: The inhibition of GABA Uptake was performed by the method described by Falch et. al, Drug Dev. Res., 1990,21, 169-188. By this method the overall, i.e. neuronal and glial, inhibition of GABA uptake is determined.

The ED50 is the dose at which the effect has come halfway, by size or by number of responders. The low end stands for an effect at a small dose, the high end for a need for a large dose. In general, IC50 refers to the concentration at which inhibition is half-maximal.

Structures can show the parent of a compound that is named as a salt.

For the molecule `CNC1CCCc2onc(O)c21` (racemic) [Compound 8a, (R,S)-3-Hydroxy-4-methylamino-4,5,6,7-tetrahydro-1,2-benzisoxazole, hydrobromide], the median effective dose (ED50) in test [1] was above 320 µmol/kg. This molecule came in with an IC50 in test [2] of 65 µM.
The molecule `Oc1noc2c1C(NCCCC(c1ccc(F)cc1)c1ccc(F)cc1)CCC2` (racemic) [Compound 8b, (R,S)-4-[4,4-Bis(4-fluorophenyl)butan-1-ylamino]-3-hydroxy-4,5,6,7-tetrahydro-1,2-benzisoxazole, hydrobromide] registered an ED50 in test [1] of 110 µmol/kg. In test [2], this molecule yielded a half-inhibitory concentration (IC50) of 0.24 µM.
The like results for `CC(=O)OCCNC1CCCc2onc(O)c21` (racemic) [Compound 8c, (R,S)-4-(2-Acetyloxyethylamino)-3-hydroxy-4,5,6,7-tetrahydro-1,2-benzisoxazole, hydrobromide] were, in that order, above 120 µmol/kg and 120 µM.
Turning to `Oc1noc2c1C(N1CCCC1)CCC2` (racemic) [Compound 8d, (R,S)-3-Hydroxy-4-(1-pyrrolidinyl)-4,5,6,7-tetrahydro-1,2-benzisoxazole, hydrobromide], the 50% effective dose (ED50) in test [1] is above 140 µmol/kg. Besides, inhibition in test [2] was half-maximal at 210 µM (IC50).
The like results for `CCNC1CCCc2onc(O)c21` (racemic) [Compound 8e, (R,S)-4-Ethylamino-3-hydroxy-4,5,6,7-tetrahydro-1,2-benzisoxazole, hydrobromide] were, in that order, above 300 µmol/kg and 100 µM.
With `C=CCNC1CCCc2onc(O)c21` (racemic) [Compound 8f, (R,S)-4-(2-propen-1-ylamino)-3-hydroxy-4,5,6,7-tetrahydro-1,2-benzisoxazole, oxalate], in test [1], the ED50 was 320 µmol/kg. Also, 100 µM corresponded to half-maximal inhibition in test [2] (IC50).
In the case of `Oc1noc2c1C(NCCCC(c1ccccc1)c1ccccc1)CCC2` (racemic) [Compound 8g, (R,S)-4-(4,4-diphenylbutan-1-ylamino]-3-hydroxy-4,5,6,7-tetrahydro-1,2-benzisoxazole, hydrobromide], the 50% effective dose (ED50) in test [1] was 56 µmol/kg. Besides, the half-maximal inhibitory concentration (IC50) in test [2] was 0.17 µM.
The like results for `Oc1noc2c1C(NCCCCc1ccccc1)CCC2` (racemic) [Compound 8h, (R,S)-4-(4-phenylbut-1-ylamino]-3-hydroxy-4,5,6,7-tetrahydro-1,2-benzisoxazole, hydrobromide] were, in that order, 150 µmol/kg and 4.8 µM.
`Oc1noc2c1C(NCCC=C1c3ccccc3CCc3ccccc31)CCC2` (racemic) [Compound 8j, (R,S)-4-[N-[3-(10,11-dihydrodibenzo[a,d]cyclohept-5-ylidene)propane-1-yl]amino]-3-hydroxy-4,5,6,7-tetrahydro-1,2-benzisoxazole, hydrobromide] registered an IC50 in test [2] of 1.1 µM.
In the case of `CN(CCC=C1c2ccccc2CCc2ccccc21)C1CCCc2onc(O)c21` (racemic) [Compound 8k, (R,S)-4-[N-[3-(10,11 1-ihydrodibenzo[a,d]cyclohept-5-ylidene)propane-1-yl]methylamino]-3-hydroxy-4,5,6,7-tetrahydro-1,2-benzisoxazole, hydrobromide], in test [1], the ED50 is 68 µmol/kg.
`Oc1noc2c1C(NCCCN1c3ccccc3Sc3ccccc31)CCC2` (racemic) [Compound 8l, (R,S)-4-[N-3-(Phenothiazin-10-yl)propane-1-yl]amino]-3-hydroxy4,5,6,7-tetrahydro-1,2-benzisoxazole, hydrobromide] gave an ED50 in test [1] of 71 µmol/kg.
As for `Cc1ccccc1C(CCCN(C)C1CCCc2onc(O)c21)c1ccccc1C` (racemic) [Compound 8m, (R,S)-4-[N-[4,4-Di-(2-tolyl)butan-1-yl]-rmethylamino]-3-hydroxy-4,5,6,7-tetrahydro-1,2-benzisoxazole, hydrobromide], in test [1], the 50% effect level (ED50) was put at a dose of 27 µmol/kg.
`Cc1ccccc1C(CCCNC1CCCc2onc(O)c21)c1ccccc1C` (racemic) [Compound 8n, (R,S)-4-[N-[4,4-Di-(2-tolyl)butan-1-yl]amino]-3-hydroxy-4,5,6,7-tetrahydro-1,2-benzisoxazole, hydrobromide]: the 50% effect level in test [1] (ED50) was put at a dose of 44 µmol/kg.
Still for that read-out and setting: under `Cc1ccccc1C(=CCCN(C)C1CCCc2onc(O)c21)c1ccccc1C` (racemic) [Compound 8o, (R,S)-4-[N-[1,1-Di-(2-tolyl)but-1-en-4-yl]methylamino]-3-hydroxy-4,5,6,7-tetrahydro-1,2-benzisoxazole] stands 50 µmol/kg; under `Cc1ccccc1C(=CCCNC1CCCc2onc(O)c21)c1ccccc1C` (racemic) [Compound 8p, (R,S) -4-[N-1,1-Di-(2-tolyl)but-1-en-4-yl]amino]-3-hydroxy-4,5,6,7-tetrahydro-1,2-benzisoxazole, hydrobromide], 30 µmol/kg.
In turn, `CN(C)C1CCCc2onc(O)c21` (racemic) [Compound 18a, (R,S)-4-Dimethylamino-3-hydroxy-4,5,6,7-tetrahydro-1,2-benzisoxazole, hydrobromide] came in with an IC50 in test [2] of 280 µM.
Take `Oc1noc2c1C(NCCC=C(c1ccccc1)c1ccccc1)CCC2` (racemic) [Compound 20b, (R,S)-3-Hydroxy-4-[N-(4,4-diphenyl-3-butenyl)amino]-4,5,6,7-tetrahydro-1,2-benzioxazole hydrochloride hydrate]: it took 0.14 µM to reach half-maximal inhibition in test [2] (IC50).
As to `Cc1ccsc1C(=CCCNC1CCCc2onc(O)c21)c1sccc1C` (racemic) [Compound 20c, (R,S)-3-Hydroxy-4-[N-(4,4-bis[3-methylthien-2-yl]-3-butenyl)amino]-4,5,6,7-tetrahydro-1,2-benzisoxazole hydrochloride], the IC50 in test [2] amounted to 0.17 µM.
In test [2], `NC1CCCc2snc(O)c21` (racemic) [Compound 26a, (R,S)-4-Amino-3-hydroxy-4,5,6,7-tetrahydro-1,2-benzisothiazole, hydrobromide] came in with an IC50 above 300 µM.
With `CN(C(=O)Oc1ccccc1)C1CCCc2onc(O)c21` (racemic) [Compound 28a, (R,S)-3-Hydroxy-N-methyl-N-(4-phenyloxycarbonyl)amino-4,5,6,7-tetrahydro-1,2-benzisoxazole], the ED50 in test [1] was 200 µmol/kg.
As to `CNC1CCCc2onc(OCOC(=O)c3ccccc3)c21` (racemic) [Compound 31a, (R,S)-3-Benzoyloxymethyloxy-4-methylamino-4,5,6,7-tetrahydro-1,2-benzisoxazole, hemioxalate], the ED50 in test [1] was 210 µmol/kg.
In test [1], `CNC1CCCc2onc(OCOC(=O)c3c(F)cccc3F)c21` (racemic) [Compound 31c, (R,S)-4-Methylamino-3-(2,6-difluorobenzoyloxymethyloxy)-4,5,6,7-tetrahydro-1,2-benzisoxazole, hemioxalate] gave an ED50 of 210 µmol/kg.
`CNC1CCCc2onc(O)c21` (single isomer, unassigned; (-)) [Compound 6d, (-)-3-hydroxy-4-methylamino-4,5,6,7-tetrahydro-1,2-benzisoxazole, hydrobromide] displayed an IC50 in test [2] (hydrobromide) above 300 µM.
In test [2], `N[C@H]1CCCc2onc(O)c21` [Compound 6a, (+)-4-amino-3-hydroxy-4,5,6,7-tetrahydro-1,2-benzisoxazole, hydrochloride] came in with an IC50 above 300 µM.
As for `N[C@@H]1CCCc2onc(O)c21` [Compound 6b, (-)-(R)-4-amino-3-hydroxy-4,5,6,7-tetrahydro-1,2-benzisoxazole, hydrochloride], the IC50 in test [2] came out at 120 µM.

Source of the values: patent US6174909A, “4-aminotetrahydrobenzisoxazole or -isothiazole compounds” (H. Lundbeck A/S, priority 1995, dated 2001).
